Laboratory results as given in PMC3752001 (European journal of pharmacology, 2012).
Several values for one entry are separate records, joined by “and”; a condition that tells them apart may be missing. Identical values can stand only once. Counter-ions that a name gives are not always drawn. Like-named read-outs stand apart in the source and are kept apart here. Each block holds one molecule with its values, some of them ahead of it.

Assays:
[1] = molecular target: high sensitivity (HS) α4β2 nicotinic acetylcholine receptors (Homo sapiens, UniProt P17787+P43681); assay: Two-electrode voltage clamp, high sensitivity; format: cell-based
Chain of high sensitivity (HS) α4β2 nicotinic acetylcholine receptors (P43681 27-627): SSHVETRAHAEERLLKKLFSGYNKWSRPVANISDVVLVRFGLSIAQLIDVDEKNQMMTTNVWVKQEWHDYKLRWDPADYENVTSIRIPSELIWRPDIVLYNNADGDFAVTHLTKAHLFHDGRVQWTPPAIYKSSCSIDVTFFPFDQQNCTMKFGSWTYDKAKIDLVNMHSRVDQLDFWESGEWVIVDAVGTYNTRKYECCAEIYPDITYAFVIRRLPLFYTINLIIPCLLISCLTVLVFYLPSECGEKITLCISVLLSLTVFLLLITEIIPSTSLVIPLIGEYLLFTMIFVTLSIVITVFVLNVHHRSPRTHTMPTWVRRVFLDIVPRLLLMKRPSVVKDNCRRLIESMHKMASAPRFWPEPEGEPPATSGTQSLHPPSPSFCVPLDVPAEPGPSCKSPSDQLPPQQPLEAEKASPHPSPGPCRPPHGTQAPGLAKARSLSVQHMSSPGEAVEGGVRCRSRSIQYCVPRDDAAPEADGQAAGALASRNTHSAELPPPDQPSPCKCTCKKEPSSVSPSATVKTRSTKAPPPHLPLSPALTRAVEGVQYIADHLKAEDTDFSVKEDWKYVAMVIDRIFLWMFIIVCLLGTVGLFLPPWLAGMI
Chain of high sensitivity (HS) α4β2 nicotinic acetylcholine receptors (P17787 26-502): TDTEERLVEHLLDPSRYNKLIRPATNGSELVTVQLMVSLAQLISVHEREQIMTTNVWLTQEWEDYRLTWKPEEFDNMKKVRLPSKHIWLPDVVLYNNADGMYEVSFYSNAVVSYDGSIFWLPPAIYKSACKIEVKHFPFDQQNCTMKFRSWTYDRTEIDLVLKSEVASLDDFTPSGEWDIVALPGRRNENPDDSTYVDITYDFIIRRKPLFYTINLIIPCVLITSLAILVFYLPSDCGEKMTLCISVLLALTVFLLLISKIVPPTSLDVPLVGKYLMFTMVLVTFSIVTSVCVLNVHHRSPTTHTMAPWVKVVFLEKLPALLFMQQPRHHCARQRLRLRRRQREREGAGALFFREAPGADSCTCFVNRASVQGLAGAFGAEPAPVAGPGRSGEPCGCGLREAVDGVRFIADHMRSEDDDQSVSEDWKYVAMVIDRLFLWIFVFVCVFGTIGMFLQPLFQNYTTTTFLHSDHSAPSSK

[2] = molecular target: HS β2D218A α4β2 receptors (Homo sapiens, UniProt P17787+P43681, D218A); assay: Two-electrode voltage clamp, HS β2D218A mutant preparation in Xenopus oocytes; format: cell-based; details: for nH ± S.E.M.: ACh concentration/response, HSβ2D218A
Chain of HS β2D218A α4β2 receptors (P43681 27-627): as the sequence (P43681 27-627) above
Chain of HS β2D218A α4β2 receptors (P17787 26-502 D218A): as the sequence (P17787 26-502) above, with D193A counted along it

[3] = molecular target: α7 nicotinic acetylcholine receptors (Homo sapiens, UniProt P36544); assay: Two-electrode voltage clamp, α7 receptors in Xenopus oocytes; format: cell-based
Chain of α7 nicotinic acetylcholine receptors (P36544 23-502): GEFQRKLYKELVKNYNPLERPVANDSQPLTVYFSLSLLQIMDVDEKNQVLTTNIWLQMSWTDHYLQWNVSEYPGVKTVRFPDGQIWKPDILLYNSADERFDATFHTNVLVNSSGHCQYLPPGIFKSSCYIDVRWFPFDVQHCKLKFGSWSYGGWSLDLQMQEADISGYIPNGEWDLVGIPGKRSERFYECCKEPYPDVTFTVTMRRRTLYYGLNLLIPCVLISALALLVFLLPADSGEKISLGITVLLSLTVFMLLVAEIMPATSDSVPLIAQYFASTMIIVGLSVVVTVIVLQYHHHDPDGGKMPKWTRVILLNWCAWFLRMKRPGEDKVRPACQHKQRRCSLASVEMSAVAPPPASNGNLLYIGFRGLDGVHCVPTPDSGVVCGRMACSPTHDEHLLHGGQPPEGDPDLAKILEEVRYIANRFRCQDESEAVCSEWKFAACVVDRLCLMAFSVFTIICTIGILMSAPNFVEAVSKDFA

[4] = molecular target: LS β2D218A α4β2 receptors (Homo sapiens, UniProt P17787+P43681, D218A); assay: Two-electrode voltage clamp, LS β2D218A mutant preparation in Xenopus oocytes; format: cell-based; details: for nH ± S.E.M.: ACh concentration/response, LSβ2D218A
Chain of LS β2D218A α4β2 receptors (P43681 27-627): as the sequence (P43681 27-627) above
Chain of LS β2D218A α4β2 receptors (P17787 26-502 D218A): as the sequence (P17787 26-502) above, with D193A counted along it

[5] = molecular target: low sensitivity (LS) α4β2 nicotinic acetylcholine receptors (Homo sapiens, UniProt P17787+P43681); assay: Two-electrode voltage clamp, low sensitivity; format: cell-based; details: for Imax (%) potentiation: dFBr co-applied with 100 μM acetylcholine (EC75)
Chain of low sensitivity (LS) α4β2 nicotinic acetylcholine receptors (P43681 27-627): as the sequence (P43681 27-627) above
Chain of low sensitivity (LS) α4β2 nicotinic acetylcholine receptors (P17787 26-502): as the sequence (P17787 26-502) above

[6] = test system: human and rat 5-hydroxytryptamine transporters (SERT); details: HEPES concentrations greater than 1 mM; ref Li et al., 2002; cited from earlier work

- IC50 [1]: 430 µM
- potentiation of the acetylcholine-induced Imax currents ([1]; 100 μM HEPES, HS, phosphate ND-96): 194%
- current induced by HEPES alone ([1]; HEPES applied alone to α4β2 expressing oocytes (data not shown)): no induced current
- maximum potentiation of acetylcholine induced responses ([1]; HEPES co-applied with 10 μM acetylcholine, HS, 2 mM phosphate ND-96, pH 7.4): 190%
- potentiation by HEPES ([2]; HEPES co-applied with 10 μM acetylcholine, HS β2D218A, phosphate ND-96): not potentiated
- effect of HEPES on responses to acetylcholine ([3]; HEPES ≤ 10 mM co-applied with 1 mM acetylcholine, α7): little observable effect
- potentiation by HEPES ([4]; HEPES co-applied with 100 μM acetylcholine, LS β2D218A, phosphate ND-96): remained insensitive
Molecule: O=S(=O)(O)CCN1CCN(CCO)CC1 [HEPES, 4-(2-hydroxyethyl)-1-piperazineethanesulfonic acid]
- effect of HEPES on acetylcholine response ([5]; HEPES co-applied with 100 μM acetylcholine, LS, phosphate ND-96): only a slight inhibition of the response with no observable potentiation
- decrease of SERT currents [6]: 10–50%

Molecule: C=CC(C)(C)c1[nH]c2cc(Br)ccc2c1CCNC [dFBr, Desformylflustrabromine · HCl]
- EC50 [1]: 3.2 µM
- IC50 [1]: 79 µM
- Imax (%) potentiation [1]: 370% and 360%
- potentiation by dFBr [1]: ~360%
- EC50 ([1]; EC50 (potentiation)): 2.5 µM
- IC50 ([1]; IC50 (inhibition phase)): 50 µM
- EC50 [5]: 1.3 µM
- IC50 [5]: 6.3 µM
- Imax (%) potentiation ([5]; LS, HEPES ND-96 buffer): 260%
- Imax (%) potentiation ([5]; LS, phosphate ND-96 buffer): 370%

Molecule: Tris (hydroxymethyl)-aminomethane hydrochloride
- inhibition of acetylcholine response ([1]; 10 mM Tris co-applied with 10 μM acetylcholine, HS, phosphate ND-96): 50%
- inhibition of the dFBr potentiated acetylcholine induced response ([1]; 10 mM Tris, with 1 μM dFBr and acetylcholine, HS, phosphate ND-96): about 50%
- current induced by Tris alone ([1]; Tris in phosphate buffer in the absence of acetylcholine): did not induce currents
- effect of Tris on acetylcholine response ([5]; Tris ≤ 10 mM co-applied with 100 μM acetylcholine, LS, phosphate ND-96): only slightly inhibited
- effect of Tris on the dFBr potentiated response ([5]; Tris ≤ 10 mM, with 1 μM dFBr and acetylcholine, LS, phosphate ND-96): only slightly inhibited

Molecule: CC(=O)OCC[N+](C)(C)C [ACh, acetylcholine chloride]
- change of acetylcholine pEC50 [1]: not significantly changed
- nH ± S.E.M. [1]: 0.9 ± 0.2 and 1.0 ± 0.2
- nH ± S.E.M. ([2]; HEPES ND-96 buffer): 1.1 ± 0.3
- nH ± S.E.M. ([2]; phosphate ND-96 buffer): 0.9 ± 0.3
- Hill slope ([3]; acetylcholine, α7, phosphate ND-96 buffer): 0.79 ± 0.13
- nH ± S.E.M. ([4]; HEPES ND-96 buffer): 1.0 ± 0.1
- nH ± S.E.M. ([4]; phosphate ND-96 buffer): 0.8 ± 0.2
- nH ± S.E.M. [5]: 1.2 ± 0.1 and 1.2 ± 0.2
